Patent US20250283073A1 (ORNA THERAPEUTICS, INC., priority 2021, published 2025)
Entries after “also recorded” stand apart in the source; their conditions may differ.

system: primary human skeletal myotubes (MYOs); test: IRES screening (Table 28), Gaussia luciferase LNP-oRNA in primary human skeletal myotubes (MYOs); details: protein expression relative to positive control (SEQ ID NO 3282 = 1)
Description: (§1) Exemplary constructs included a 5′ enhanced intron element, a 5′ enhanced exon element, a putative IRES, a coding element encoding Gaussia Luciferase, a 3′ enhanced exon element, and a 3′ enhanced intron element.
(§2) Purified oRNA was nanoprecipitated with lipids to form LNP-oRNA constructs. LNPs were formulated first by creating empty lipid nanoparticles using a Precision Nanosystems Ignite instrument with a “NextGen” mixing chamber. Ethanol phase contained Lipid 39 from Table 10b, DSPC, cholesterol, and DMG-PEG 2000 (Avanti Polar Lipids, Inc., Alabaster, AL) at a molar ratio of 45:9:44:2 was combined with 50 mM sodium acetate buffer at pH 4.5. A 3:1 aqueous to ethanol mixing ratio was used. The empty LNPs were then dialyzed in 1 L of 1×PBS and exchanged 2 times over 18 hours. […] A 3:1 aqueous to empty lipid nanoparticle mixing ratio was used. The LNPs final ionizable lipid to RNA phosphate ratio was at 6.0.
(§3) Primary human skeletal myotubes (MYOs), primary human hepatocytes (PHHs), and activated primary human T cells (TCLs) were treated with formulated LNP-oRNA in triplicate. Protein expression in supernatant was assessed by luminescence measurements 48 hours following transfection.
(§4) Total luminescent signal was normalized across replicate plates to control for plate-wide differences between replicates due to flash assay readout timing. Plates with positive controls having <2× signal over background were excluded from analysis. Background was subtracted based on empty wells. Each test well replicate was normalized to its respective plate control and then the replicates were averaged.
(§5) Measured numbers are normalized to a control (caprine kobuvirus IRES, SEQ ID NO: 3282) and represented as a fold change.

In order of falling “MYO AVG [Fold Change]” value:
1. CCCCCCCCC(CCCCCC)COC(=O)CCCCCCCN(CCO)CCCCCCCC(=O)OCC(CCCCCC)CCCCCCCC (centres unmarked) [Lipid 46]  0.2249 Fold Change
2. CCCCCCCCC(CCCCCC)C(=O)OCCCCCCN(CCCCCCOC(=O)C(CCCCCC)CCCCCCCC)CC(O)CC (centres unmarked) [Lipid 40]  0.199 Fold Change
3. CCCCCCC(CCCC)COC(=O)CCCCCCCN(CCCCO)CCCCCCCC(=O)OCC(CCCC)CCCCCC (centres unmarked) [Lipid 49]  0.1952 Fold Change
4. CCCCCCCCC(CCCCCC)C(=O)OCCCCCCN(CCCCCCOC(=O)C(CCCCCC)CCCCCCCC)CCCC(=O)OCC (centres unmarked) [Lipid 48]  0.1303 Fold Change
5. CCCCC(CC)C(=O)OCCCCCCCCCN(CCCO)CCCCCCCCCOC(=O)C(CC)CCCC (centres unmarked) [Lipid 43]  0.11 Fold Change
6. CCCCCCCCC(CCCCCC)C(=O)OCCCCCCCCCCCCN(CCCO)CCCCCCCCCCCCOC(=O)C(CCCCCC)CCCCCCCC (centres unmarked) [Lipid 38]  0.07838 Fold Change
7. CCCCCCC(CCCC)C(=O)OCCCCCCN(CCCCO)CCCCCCOC(=O)C(CCCC)CCCCCC (centres unmarked) [Lipid 42]  0.07198 Fold Change
8. CCCCCCCCCCC(CCCCCCCC)C(=O)OCCCCCCN(CCCO)CCCCCCOC(=O)C(CCCCCCCC)CCCCCCCCCC (centres unmarked) [Lipid 37]  0.03859 Fold Change
9. CCCCCCCCC(CCCCCC)C(=O)OCCCCCCN(CCC#N)CCCCCCOC(=O)C(CCCCCC)CCCCCCCC (centres unmarked) [Lipid 47]  0.00246 Fold Change
10. CCCCCCCCC(CCCCCC)C(=O)OCCCCCCN(CCCCCCOC(=O)C(CCCCCC)CCCCCCCC)CCCOC (centres unmarked) [Lipid 41]  0.0004126 Fold Change
11. CCCCCCCCC(CCCCCC)COC(=O)CCCCCN(CCCCCC(=O)OCC(CCCCCC)CCCCCCCC)CCCC(=O)OCC (centres unmarked) [Lipid 39]  0.0002919 Fold Change
12. CCCCCCCCC(CCCCCC)C(=O)OCCCCCCN(CCCCCCOC(=O)C(CCCCCC)CCCCCCCC)CCCCNC(C)=O (centres unmarked) [Lipid 36]  0 Fold Change
13. CCCCCCCCCCCCC(CCCCCCCCCC)C(=O)OCCCCCCN(CCCO)CCCCCCOC(=O)C(CCCCCCCCCC)CCCCCCCCCCCC (centres unmarked) [Lipid 44]  0 Fold Change

system: splenic immune cells; test: Cre circRNA LNP transfection of splenic immune cells in Ai9 Cre reporter mice (tdTomato); assay type: in vivo; details: 0.5 mg/kg Cre circRNA LNP i.v., 48 hr, named by ionizable lipid, 0.5 mg/kg
Experimental: Circular RNAs encoding Cre recombinase (Cre) are encapsulated into lipid nanoparticles as previously described. Female, 6-8 week old B6.Cg-Gt(ROSA)26Sortm9(CAG-tdTomato)Hze/J (Ai9) mice were dosed with lipid nanoparticles at 0.5 mg/kg RNA intravenously. Fluorescent tdTomato protein was transcribed and translated in Ai9 mice upon Cre recombination, meaning circular RNAs have been delivered to and translated in tdTomato+ cells. After 48 hr, mice were euthanized and the spleens were harvested, processed into a single cell suspension, and stained with various fluorophore-conjugated antibodies for immunophenotyping via flow cytometry.
Ai9 mice (B6.Cg-Gt(ROSA)26Sortm9(CAG-tdTomato)Hze/J, female, 6-8 weeks, n=3 per group) were injected i.v. with 0.5 mg/kg Cre circRNA LNPs or PBS. Ai9 mice transcribe and translate the fluorescent reporter tdTomato upon Cre recombination; meaning cells which are tdTomato+ have successfully been transfected with Cre circRNA. […] Flow cytometry was performed using an Attune Nxt Flow Cytometer (Thermo).

With CCCCCCCCC(CCCCCC)C(=O)OCCCCCCN(CCCCCCOC(=O)C(CCCCCC)CCCCCCCC)CCCn1ccnc1 (centres unmarked) [Lipid 10a-26] the “splenic immune cells expressing tdTomato” value was “significantly higher myeloid and T cell transfection compared with Lipid 93-S14; also recorded: effective at delivering circular RNAs to many splenic immune cell subsets”.
For CCCCCCCCC(CCCCCC)C(=O)OCCCCCCN(CCCCCCOC(=O)C(CCCCCC)CCCCCCCC)CCCn1ccnc1C (centres unmarked) [Lipid 10a-27], the “splenic immune cells expressing tdTomato” value was “significantly higher myeloid and T cell transfection compared with Lipid 93-S14; also recorded: effective at delivering circular RNAs to many splenic immune cell subsets”.

system: activated primary human T cells (TCLs); test: IRES screening (Table 28), Gaussia luciferase LNP-oRNA in activated primary human T cells (TCLs); details: protein expression relative to positive control (SEQ ID NO 3282 = 1)
Description: as §1, §2, §3, §4, §5

In order of falling “TCL AVG [Fold Change]” value:
1. CCCCC(CC)C(=O)OCCCCCCCCCN(CCCO)CCCCCCCCCOC(=O)C(CC)CCCC (centres unmarked) [Lipid 43]  0.2866 Fold Change
2. CCCCCCCCC(CCCCCC)COC(=O)CCCCCCCN(CCO)CCCCCCCC(=O)OCC(CCCCCC)CCCCCCCC (centres unmarked) [Lipid 46]  0.2472 Fold Change
3. CCCCCCC(CCCC)C(=O)OCCCCCCN(CCCCO)CCCCCCOC(=O)C(CCCC)CCCCCC (centres unmarked) [Lipid 42]  0.09322 Fold Change
4. CCCCCCC(CCCC)COC(=O)CCCCCCCN(CCCCO)CCCCCCCC(=O)OCC(CCCC)CCCCCC (centres unmarked) [Lipid 49]  0.07252 Fold Change
5. CCCCCCCCC(CCCCCC)C(=O)OCCCCCCN(CCCCCCOC(=O)C(CCCCCC)CCCCCCCC)CC(O)CC (centres unmarked) [Lipid 40]  0.05108 Fold Change
6. CCCCCCCCC(CCCCCC)C(=O)OCCCCCCN(CCCCCCOC(=O)C(CCCCCC)CCCCCCCC)CCCOC (centres unmarked) [Lipid 41]  0.02752 Fold Change
7. CCCCCCCCCCC(CCCCCCCC)C(=O)OCCCCCCN(CCCO)CCCCCCOC(=O)C(CCCCCCCC)CCCCCCCCCC (centres unmarked) [Lipid 37]  0.0237 Fold Change
8. CCCCCCCCC(CCCCCC)C(=O)OCCCCCCN(CCC#N)CCCCCCOC(=O)C(CCCCCC)CCCCCCCC (centres unmarked) [Lipid 47]  0.02259 Fold Change
9. CCCCCCCCC(CCCCCC)C(=O)OCCCCCCCCCCCCN(CCCO)CCCCCCCCCCCCOC(=O)C(CCCCCC)CCCCCCCC (centres unmarked) [Lipid 38]  0.02186 Fold Change
10. CCCCCCCCCCCCC(CCCCCCCCCC)C(=O)OCCCCCCN(CCCO)CCCCCCOC(=O)C(CCCCCCCCCC)CCCCCCCCCCCC (centres unmarked) [Lipid 44]  0.01421 Fold Change
11. CCCCCCCCC(CCCCCC)COC(=O)CCCCCN(CCCCCC(=O)OCC(CCCCCC)CCCCCCCC)CCCC(=O)OCC (centres unmarked) [Lipid 39]  0.003256 Fold Change
12. CCCCCCCCC(CCCCCC)C(=O)OCCCCCCN(CCCCCCOC(=O)C(CCCCCC)CCCCCCCC)CCCC(=O)OCC (centres unmarked) [Lipid 48]  0.002803 Fold Change
13. CCCCCCCCC(CCCCCC)C(=O)OCCCCCCN(CCCCCCOC(=O)C(CCCCCC)CCCCCCCC)CCCCNC(C)=O (centres unmarked) [Lipid 36]  0.0009344 Fold Change

system: primary human hepatocytes (PHHs); test: IRES screening (Table 28), Gaussia luciferase LNP-oRNA in primary human hepatocytes (PHHs); details: protein expression relative to positive control (SEQ ID NO 3282 = 1)
Description: as §1, §2, §3, §4, §5

In order of falling “PHH AVG [Fold Change]” value:
1. CCCCCCC(CCCC)COC(=O)CCCCCCCN(CCCCO)CCCCCCCC(=O)OCC(CCCC)CCCCCC (centres unmarked) [Lipid 49]  0.6215 Fold Change
2. CCCCCCCCC(CCCCCC)COC(=O)CCCCCCCN(CCO)CCCCCCCC(=O)OCC(CCCCCC)CCCCCCCC (centres unmarked) [Lipid 46]  0.503 Fold Change
3. CCCCC(CC)C(=O)OCCCCCCCCCN(CCCO)CCCCCCCCCOC(=O)C(CC)CCCC (centres unmarked) [Lipid 43]  0.456 Fold Change
4. CCCCCCCCC(CCCCCC)C(=O)OCCCCCCN(CCCCCCOC(=O)C(CCCCCC)CCCCCCCC)CCCC(=O)OCC (centres unmarked) [Lipid 48]  0.4247 Fold Change
5. CCCCCCC(CCCC)C(=O)OCCCCCCN(CCCCO)CCCCCCOC(=O)C(CCCC)CCCCCC (centres unmarked) [Lipid 42]  0.3425 Fold Change
6. CCCCCCCCCCC(CCCCCCCC)C(=O)OCCCCCCN(CCCO)CCCCCCOC(=O)C(CCCCCCCC)CCCCCCCCCC (centres unmarked) [Lipid 37]  0.2564 Fold Change
7. CCCCCCCCC(CCCCCC)C(=O)OCCCCCCN(CCCCCCOC(=O)C(CCCCCC)CCCCCCCC)CC(O)CC (centres unmarked) [Lipid 40]  0.2391 Fold Change
8. CCCCCCCCC(CCCCCC)C(=O)OCCCCCCCCCCCCN(CCCO)CCCCCCCCCCCCOC(=O)C(CCCCCC)CCCCCCCC (centres unmarked) [Lipid 38]  0.2209 Fold Change
9. CCCCCCCCC(CCCCCC)C(=O)OCCCCCCN(CCC#N)CCCCCCOC(=O)C(CCCCCC)CCCCCCCC (centres unmarked) [Lipid 47]  0.08942 Fold Change
10. CCCCCCCCCCCCC(CCCCCCCCCC)C(=O)OCCCCCCN(CCCO)CCCCCCOC(=O)C(CCCCCCCCCC)CCCCCCCCCCCC (centres unmarked) [Lipid 44]  0.01602 Fold Change
11. CCCCCCCCC(CCCCCC)C(=O)OCCCCCCN(CCCCCCOC(=O)C(CCCCCC)CCCCCCCC)CCCOC (centres unmarked) [Lipid 41]  0.01033 Fold Change
12. CCCCCCCCC(CCCCCC)COC(=O)CCCCCN(CCCCCC(=O)OCC(CCCCCC)CCCCCCCC)CCCC(=O)OCC (centres unmarked) [Lipid 39]  0.003901 Fold Change
13. CCCCCCCCC(CCCCCC)C(=O)OCCCCCCN(CCCCCCOC(=O)C(CCCCCC)CCCCCCCC)CCCCNC(C)=O (centres unmarked) [Lipid 36]  0 Fold Change
